“And” between values parts separate entries of the source, which are not always exact repeats. Identical values can stand only once. “Also recorded” adds a separate entry of the source. Like-named read-outs stand apart in the source and are kept apart here.
Assays:
[1] = molecular target: dog MDR1 wt (canine MDR1 carrier) (Canis lupus familiaris, UniProt Q4PLA8); experiment: Rh123 efflux inhibition (IC50) in stably transfected MDR1-HEK293 cells, dog MDR1 wt; details: for IC50: IC50, inhibition of Rh123 efflux, dog MDR1 wt, 5 μM Rh123, HEK293 after tetracycline treatment, one value per independent experiment (two experiments)
Sequence of dog MDR1 wt (canine MDR1 carrier) (Q4PLA8 entry or part of it): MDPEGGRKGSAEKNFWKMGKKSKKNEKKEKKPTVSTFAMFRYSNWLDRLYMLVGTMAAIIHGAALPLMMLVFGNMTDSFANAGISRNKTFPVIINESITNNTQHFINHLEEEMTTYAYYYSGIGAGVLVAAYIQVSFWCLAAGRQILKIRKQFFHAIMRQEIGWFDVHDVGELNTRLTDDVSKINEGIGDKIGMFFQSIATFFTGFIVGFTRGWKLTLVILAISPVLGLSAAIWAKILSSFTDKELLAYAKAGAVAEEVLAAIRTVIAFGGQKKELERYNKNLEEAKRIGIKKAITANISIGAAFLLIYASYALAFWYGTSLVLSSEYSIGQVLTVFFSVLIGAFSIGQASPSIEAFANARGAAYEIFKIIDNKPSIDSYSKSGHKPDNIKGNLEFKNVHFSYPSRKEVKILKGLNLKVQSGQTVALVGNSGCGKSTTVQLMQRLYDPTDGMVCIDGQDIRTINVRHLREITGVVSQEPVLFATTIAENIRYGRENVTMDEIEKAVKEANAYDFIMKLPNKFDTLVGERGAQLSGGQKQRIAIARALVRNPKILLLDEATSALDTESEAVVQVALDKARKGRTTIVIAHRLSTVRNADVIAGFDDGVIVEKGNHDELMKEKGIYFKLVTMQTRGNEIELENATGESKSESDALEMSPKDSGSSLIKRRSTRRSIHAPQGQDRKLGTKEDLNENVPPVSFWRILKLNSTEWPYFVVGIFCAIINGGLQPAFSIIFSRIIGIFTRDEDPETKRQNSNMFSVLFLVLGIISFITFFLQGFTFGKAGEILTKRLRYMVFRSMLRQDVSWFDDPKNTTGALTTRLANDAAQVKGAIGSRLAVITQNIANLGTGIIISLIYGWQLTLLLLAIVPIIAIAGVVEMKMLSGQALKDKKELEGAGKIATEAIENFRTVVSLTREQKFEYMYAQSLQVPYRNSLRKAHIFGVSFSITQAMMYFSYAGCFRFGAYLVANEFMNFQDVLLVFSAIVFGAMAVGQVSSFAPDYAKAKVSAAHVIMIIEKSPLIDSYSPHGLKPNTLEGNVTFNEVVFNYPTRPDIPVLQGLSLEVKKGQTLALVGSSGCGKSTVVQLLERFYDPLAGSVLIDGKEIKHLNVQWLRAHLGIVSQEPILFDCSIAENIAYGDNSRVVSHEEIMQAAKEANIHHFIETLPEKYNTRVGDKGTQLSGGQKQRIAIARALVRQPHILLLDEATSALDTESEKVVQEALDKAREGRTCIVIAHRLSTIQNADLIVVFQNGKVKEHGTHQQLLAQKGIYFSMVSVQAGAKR
Protocol: (§1) Transport inhibition experiments were performed with 5 μM Rh123 as the probe substrate in stably transfected MDR1‐HEK293 cells. Cells were seeded onto polylysine‐coated 96‐well plates and gene expression was induced with tetracycline treatment at 1 μg/mL. […] Subsequently, the PBS was replaced with 80 μL of transport buffer again containing the respective inhibitor or solvent alone, and cells were further incubated for 60 min at 37°C for the efflux phase.
(§2) All graphs and diagrams were generated with GraphPad Prism 6 (GraphPad Software Inc., San Diego, CA, USA). The IC50 values were determined by nonlinear regression analysis using the equation log (inhibitor) versus response—variable slope settings. Statistical analyses were performed using GraphPad Prism 6. As detailed in the figure legends, either Student's t‐test or two‐way ANOVA was applied, as appropriate.

[2] = molecular target: cat MDR1 wt (feline MDR1 carrier) (Felis catus, UniProt D2KKF0); experiment: Rh123 efflux inhibition (IC50) in stably transfected MDR1-HEK293 cells, cat MDR1 wt; details: IC50, inhibition of Rh123 efflux, 5 μM Rh123, HEK293 after tetracycline treatment, one value per independent experiment (two experiments)
Sequence of cat MDR1 wt (feline MDR1 carrier) (D2KKF0 entry or part of it): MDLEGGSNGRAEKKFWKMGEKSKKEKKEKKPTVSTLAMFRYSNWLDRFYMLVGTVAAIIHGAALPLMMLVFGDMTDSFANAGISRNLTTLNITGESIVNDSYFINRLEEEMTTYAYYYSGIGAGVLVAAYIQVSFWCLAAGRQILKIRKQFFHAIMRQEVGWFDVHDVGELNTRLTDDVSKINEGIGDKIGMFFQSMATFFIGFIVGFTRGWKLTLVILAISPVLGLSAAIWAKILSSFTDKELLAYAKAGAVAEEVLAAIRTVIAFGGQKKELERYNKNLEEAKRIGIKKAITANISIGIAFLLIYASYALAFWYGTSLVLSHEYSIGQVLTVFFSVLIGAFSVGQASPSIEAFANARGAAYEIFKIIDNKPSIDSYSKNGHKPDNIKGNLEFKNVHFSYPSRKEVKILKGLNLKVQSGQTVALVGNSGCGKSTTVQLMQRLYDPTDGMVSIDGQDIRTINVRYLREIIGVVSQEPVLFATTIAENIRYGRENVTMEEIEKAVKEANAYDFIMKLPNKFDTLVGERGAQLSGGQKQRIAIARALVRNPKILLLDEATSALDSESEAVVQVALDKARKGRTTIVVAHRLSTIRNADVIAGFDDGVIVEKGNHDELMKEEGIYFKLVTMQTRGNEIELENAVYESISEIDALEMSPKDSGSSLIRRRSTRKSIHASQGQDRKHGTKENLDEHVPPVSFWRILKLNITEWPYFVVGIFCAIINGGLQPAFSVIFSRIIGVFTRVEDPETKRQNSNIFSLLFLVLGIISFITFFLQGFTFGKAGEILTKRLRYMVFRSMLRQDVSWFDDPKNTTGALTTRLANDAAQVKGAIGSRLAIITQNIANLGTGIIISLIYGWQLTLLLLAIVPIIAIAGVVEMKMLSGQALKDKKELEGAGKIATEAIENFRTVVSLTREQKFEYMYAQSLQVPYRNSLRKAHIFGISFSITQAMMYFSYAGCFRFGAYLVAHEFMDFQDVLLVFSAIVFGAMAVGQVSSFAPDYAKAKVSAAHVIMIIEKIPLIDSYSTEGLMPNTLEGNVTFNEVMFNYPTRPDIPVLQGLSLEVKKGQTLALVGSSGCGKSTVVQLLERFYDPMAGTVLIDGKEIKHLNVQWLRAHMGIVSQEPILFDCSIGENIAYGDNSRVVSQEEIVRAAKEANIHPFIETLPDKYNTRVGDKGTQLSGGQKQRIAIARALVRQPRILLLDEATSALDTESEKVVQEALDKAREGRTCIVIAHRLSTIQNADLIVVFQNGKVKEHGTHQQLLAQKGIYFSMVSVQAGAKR
Protocol: as §1, §2

[3] = tested on: wild-type MDR1 (P-glycoprotein) of dog and cat; experiment: Rh123 efflux inhibition in MDR1-HEK293 cells, stated for both wild-type MDR1 carriers together; details: dog and cat, IC50 range, inhibition of both wild-type MDR1 carriers (dog and cat), 5 μM Rh123, HEK293, range over both species and experiments
Protocol: as §1, §2

dog MDR1 wt = experiment: Rh123 transport experiment in HEK293 cells with/without tariquidar, dog MDR1 wt; type: cell-based; details: 1 μM TQD, 5 μM Rh123, HEK293
[4] = tested on: MDR1 carrier (parent MDCKII, dog MDR1 wt and cat MDR1 wt MDCKII^MDR1ko cells); experiment: Transwell transport experiments in MDCKII cells with Rh123 and [3H]digoxin; type: cell-based; details: 1 μM TQD
Protocol: For transwell transport experiments in the MDCKII cell lines, 3 × 10^5 cells were seeded per 12‐mm/0.4 μm transwell membrane inserts (Sarstedt, Numbrecht, Germany). One day after seeding, the medium was changed. The transport experiments were performed 72 h after seeding and after reaching 100% confluence. Measurement of the transepithelial electrical resistance (TEER) was conducted on each well with the Millicell ERS‐2 electrical resistance system (Millipore) to confirm the integrity of the monolayer. Only cell monolayers that reached > 150 Ω cm^2 were used for the transport experiments. […] Fluorescence of Rh123 was detected with the GloMax plate reader. […] The amount of [^3H]digoxin in the samples was quantified by Tri‐Carb 2910TR Liquid Scintillation Analyzer (Perkin Elmer).
For all transwell experiments with Rh123 and [^3H]digoxin as the substrates, apparent permeability coefficients (P app, cm/s) and the efflux ratios (ER) were calculated as follows: Papp=V/A×C0×dQ/dt where “V” is the volume of the receiver chamber (1.5 or 0.5 mL), “A” is the surface area of the transwell inserts (being 1.1 cm^2), “C 0” is the initial concentration of the compound, and “dQ/dt” is the transport rate.
From the P app values of the AB and BA transport experiments, the ER was calculated as follows: [drawing 1]

cat MDR1 wt = experiment: Rh123 transport experiment in HEK293 cells with/without tariquidar, cat MDR1 wt; details: 1 μM TQD, 5 μM Rh123, HEK293
Protocol: Cells were seeded onto polylysine‐coated 24‐well plates. Gene expression was induced with 1 μg/mL tetracycline treatment. Cells were grown to confluence over 72 h at 37°C. […] After 30 min pre‐incubation, transport experiments were started by replacing the medium with transport buffer additionally containing 5 μM Rh123. The Rh123 uptake was stopped after 90 min by two‐times washing with ice‐cold PBS. Subsequently, the PBS was again replaced with 250 μL of DMEM as the transport buffer, with or without TQD, and the efflux phase lasted over 60 min at 37°C. Then, experiments were stopped by two‐times washing with ice‐cold PBS. Finally, cells were lysed with 500 μL of 1 N NaOH with 0.1% SDS. Cell‐associated fluorescence of Rh123 was quantified by GloMax microplate reader (Promega). Fluorescence was detected at 490 nm excitation and 510–570 nm emission. […] The absolute fluorescence units per well were normalized to the protein amount and expressed as relative fluorescence units (RFU)/μg protein.

MDR1 carrier = tested on: MDR1 carrier; set-up: method as in Lespine et al. [2007]; details: membrane vesicles from DC-3F-/ADX MDR1-overexpressing cells; ref Lespine et al. [2007]; read-out: Ki, ATPase activity of the MDR1 carrier stimulated by verapamil; cited from earlier work
[5] = tested on: dogs with homozygous MDR1 gene mutation; details: cited from earlier work
[6] = tested on: wild-type MDR1 carriers of dog and cat; experiment: Rh123 efflux inhibition in MDR1-HEK293 cells, stated for both wild-type MDR1 carriers together; details: analyzed inhibitor concentration range, highest 100 μM
Protocol: as §1, §2

[7] = stably transfected MDR1-HEK293 cells (tetracycline-induced), probe rhodamine 123 (Rh123), 5 μM

Structure (SMILES)	IC50 [1]	IC50 [2]	IC50 at 60 min [3, 7] [µM]	IC50 at 60 min [3] [µM]	also measured
COc1cc2c(cc1OC)CN(CCc1ccc(NC(=O)c3cc(OC)c(OC)cc3NC(=O)c3cnc4ccccc4c3)cc1)CC2 [tariquidar]	0.06 µM and 0.12 µM	0.14 µM and 0.23 µM	0.1 to 0.2		Effect on Rh123 efflux activity of wild-type canine MDR1 (dog MDR1 wt): fully abolished; Effect on transcellular transport of [3H]digoxin ([4]; 1 μM [3H]digoxin, dog MDR1 wt and cat MDR1 wt cell lines): completely abolished; Effect on transcellular transport of Rh123 ([4]; 5 μM Rh123, dog MDR1 wt and cat MDR1 wt cell lines): completely abolished; Effect on Rh123 efflux activity of wild-type feline MDR1 (cat MDR1 wt): TQD‐sensitive reduction in Rh123 accumulation
CO[C@H]1C[C@H](O[C@@H]2/C(C)=C/C[C@@H]3C[C@@H](C[C@]4(CC[C@H](C)[C@@H](C5CCCCC5)O4)O3)OC(=O)[C@@H]3C=C(C)/C(=N/O)[C@H]4OC/C(=C\C=C\[C@@H]2C)[C@]43O)O[C@@H](C)[C@@H]1O [selamectin]	21.5 µM and 15.7 µM	14.3 µM and 10.3 µM		10 to 22	Ki (MDR1 carrier): 1 µM; Oral dose remaining without clinical symptoms of neurological toxicity ([5]; ivermectin-sensitive Collies, oral, ref Geyer and Janko [2012]): exceeding 15 mg/kg
O=C(CNC(=O)c1ccc(C2=NO[C@](c3cc(Cl)cc(C(F)(F)F)c3)(C(F)(F)F)C2)c2ccccc12)NCC(F)(F)F [afoxolaner]					Interaction with / inhibition of the MDR1 carriers from either species [6]: no detectable interaction; also recorded: no inhibition; Safety of oral administration ([5]; dogs with homozygous MDR1 gene mutation, monotherapy or in combination with milbemycin oxime, ref Drag et al. [2022]): safe
CO[C@H]1C[C@H](O[C@H]2[C@H](C)O[C@@H](O[C@@H]3/C(C)=C/C[C@@H]4C[C@@H](C[C@]5(C=C[C@H](C)[C@@H](C6CCCCC6)O5)O4)OC(=O)[C@@H]4C=C(C)[C@@H](O)[C@H]5OC/C(=C\C=C\[C@@H]3C)[C@]54O)C[C@@H]2OC)O[C@@H](C)[C@@H]1O [doramectin]					Outcome of off-label treatment ([5]; dogs with homozygous MDR1 mutation, 0.6 mg/kg subcutaneous injection, ref Mealey et al. [2001], Hopper et al. [2008], Geyer and Janko [2012]): fatal cases of neurological toxicity
C/C=C/C[C@@H](C)C(=O)[C@H]1C(=O)N[C@@H](C(C)C)C(=O)N(C)CC(=O)N(C)[C@@H](CC(C)C)C(=O)N[C@@H](C(C)C)C(=O)N(C)[C@@H](CC(C)C)C(=O)N[C@@H](C)C(=O)N[C@H](C)C(=O)N(C)[C@@H](CC(C)C)C(=O)N(C)[C@@H](CC(C)C)C(=O)N(C)[C@@H](C(C)C)C(=O)N1C [PSC833, valspodar]	0.66 µM and 0.95 µM	1.5 µM		1 to 2	
Cc1cc(C2=NO[C@@](c3cc(Cl)c(Cl)c(Cl)c3)(C(F)(F)F)C2)sc1C(=O)NCC(=O)NCC(F)(F)F [lotilaner]	23.2 µM and 10.9 µM	17.5 µM and 10.9 µM	11 to 23		
CS(=O)(=O)CC(=O)N1CC2(C1)OCc1cc(C3=NO[C@@](c4cc(Cl)c(F)c(Cl)c4)(C(F)(F)F)C3)ccc12 [sarolaner]	41.6 µM and 30 µM	56.5 µM and 35.1 µM		30 to 57	
Cc1cc(C2=NO[C@](c3cc(Cl)cc(Cl)c3)(C(F)(F)F)C2)ccc1C(=O)NCC(=O)NCC(F)(F)F [fluralaner]		69.9 µM and > 100 µM			Inhibition of the canine MDR1 carrier ([1]; up to the maximum tested concentration of 100 μM): did not inhibit; Safety of oral administration ([5]; Collies with homozygous MDR1 gene mutation, ref Walther et al. [2014]): treatment safety without neurological toxicity
CO/N=C1\C[C@]2(C[C@@H]3C[C@@H](C/C=C(\C)C[C@@H](C)/C=C/C=C4\CO[C@@H]5[C@H](O)C(C)=C[C@@H](C(=O)O3)[C@]45O)O2)O[C@H](/C(C)=C/C(C)C)[C@H]1C [moxidectin]	21.2 µM and 15.2 µM	9.2 µM and 8.4 µM	8 to 21		
